# In PubChem BioAssay (NCI):
#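 Five compound concentrations were applied to cells in 96-well plates for 48 hours; endpoints were derived by simple linear interpolation of the resulting dose-response curve. Here, GI50 denotes the concentration required for 50% inhibition of growth. Definition used: TGI = concentration required for complete inhibition of growth.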
# Tests used:
# Assay in all cases: NCI tumour cell line growth inhibition, 48 h
# 786-0 renal = system: 786-0 renal
# A498 renal = system: A498 renal
# CCRF-CEM leukemia = system: CCRF-CEM leukemia
# COLO 205 colon = system: COLO 205 colon
# HCC-2998 colon = system: HCC-2998 colon
# HCT-116 colon = system: HCT-116 colon
# HL-60(TB) leukemia = system: HL-60(TB) leukemia
# HOP-92 NSCLC = system: HOP-92 NSCLC
# K-562 leukemia = system: K-562 leukemia
# LOX IMVI melanoma = system: LOX IMVI melanoma
# M14 melanoma = system: M14 melanoma
# MALME-3M melanoma = system: MALME-3M melanoma
# MCF7 breast = system: MCF7 breast
# MDA-MB-231 breast = system: MDA-MB-231 breast
# MDA-MB-435 = system: MDA-MB-435
# MOLT-4 leukemia = system: MOLT-4 leukemia
# NCI-H460 lung = system: NCI-H460 lung
# NCI-H522 lung = system: NCI-H522 lung
# NCI/ADR-RES ovarian = system: NCI/ADR-RES ovarian
# RPMI-8226 leukemia = system: RPMI-8226 leukemia
# RXF 393 renal = system: RXF 393 renal
# SF-539 CNS = system: SF-539 CNS
# SK-MEL-2 melanoma = system: SK-MEL-2 melanoma
# SK-MEL-28 melanoma = system: SK-MEL-28 melanoma
# SK-MEL-5 melanoma = system: SK-MEL-5 melanoma
# SNB-75 CNS = system: SNB-75 CNS
# SR leukemia = system: SR leukemia
# SW-620 colon = system: SW-620 colon
# TK-10 renal = system: TK-10 renal
# U251 CNS = system: U251 CNS
# UACC-257 melanoma = system: UACC-257 melanoma
# UACC-62 melanoma = system: UACC-62 melanoma
# UO-31 renal = system: UO-31 renal
structure (smiles),measurement,setting,value
CC1COc2c(N3CCN(C)CC3)c(F)cc3c(=O)c(C(=O)N/N=C/c4cc[nH]c4)cn1c23 (stereo unspecified),GI50,786-0 renal,1420 nM
same,TGI,786-0 renal,2850 nM
same,GI50,A498 renal,2220 nM
same,TGI,A498 renal,> 100000 nM
same,GI50,CCRF-CEM leukemia,959 nM
same,TGI,CCRF-CEM leukemia,2790 nM
same,GI50,COLO 205 colon,1270 nM
same,TGI,COLO 205 colon,2600 nM
same,GI50,HCC-2998 colon,518 nM
same,TGI,HCC-2998 colon,1890 nM
same,GI50,HCT-116 colon,712 nM
same,TGI,HCT-116 colon,2000 nM
same,GI50,HL-60(TB) leukemia,674 nM
same,TGI,HL-60(TB) leukemia,2590 nM
same,GI50,HOP-92 NSCLC,497 nM
same,TGI,HOP-92 NSCLC,36000 nM
same,GI50,K-562 leukemia,699 nM
same,TGI,K-562 leukemia,2350 nM
same,GI50,LOX IMVI melanoma,715 nM
same,TGI,LOX IMVI melanoma,2070 nM
same,GI50,M14 melanoma,1670 nM
same,TGI,M14 melanoma,3120 nM
same,GI50,MALME-3M melanoma,1040 nM
same,TGI,MALME-3M melanoma,2570 nM
same,GI50,MCF7 breast,417 nM
same,TGI,MCF7 breast,1650 nM
same,GI50,MDA-MB-231 breast,1480 nM
same,TGI,MDA-MB-231 breast,3000 nM
same,GI50,MDA-MB-435,1520 nM
same,TGI,MDA-MB-435,2910 nM
same,GI50,MOLT-4 leukemia,502 nM
same,TGI,MOLT-4 leukemia,2100 nM
same,GI50,NCI-H460 lung,767 nM
same,TGI,NCI-H460 lung,2080 nM
same,GI50,NCI-H522 lung,1240 nM
same,TGI,NCI-H522 lung,2640 nM
same,GI50,NCI/ADR-RES ovarian,> 100000 nM
same,TGI,NCI/ADR-RES ovarian,> 100000 nM
same,GI50,RPMI-8226 leukemia,2190 nM
same,TGI,RPMI-8226 leukemia,4580 nM
same,GI50,RXF 393 renal,1060 nM
same,TGI,RXF 393 renal,2350 nM
same,GI50,SF-539 CNS,1280 nM
same,TGI,SF-539 CNS,2610 nM
same,GI50,SK-MEL-2 melanoma,1570 nM
same,TGI,SK-MEL-2 melanoma,3010 nM
same,GI50,SK-MEL-28 melanoma,1470 nM
same,TGI,SK-MEL-28 melanoma,2830 nM
same,GI50,SK-MEL-5 melanoma,1400 nM
same,TGI,SK-MEL-5 melanoma,2710 nM
same,GI50,SNB-75 CNS,1480 nM
same,TGI,SNB-75 CNS,3470 nM
same,GI50,SR leukemia,841 nM
same,TGI,SR leukemia,3160 nM
same,GI50,SW-620 colon,1300 nM
same,TGI,SW-620 colon,2620 nM
same,GI50,TK-10 renal,5400 nM
same,TGI,TK-10 renal,96100 nM
same,GI50,U251 CNS,614 nM
same,TGI,U251 CNS,1980 nM
same,GI50,UACC-257 melanoma,1640 nM
same,TGI,UACC-257 melanoma,3120 nM
same,GI50,UACC-62 melanoma,1700 nM
same,TGI,UACC-62 melanoma,3160 nM
same,GI50,UO-31 renal,2710 nM
same,TGI,UO-31 renal,> 100000 nM
